Measured values as given in patent US20030187048A1, “Method for inhibiting skin lesion formation using histamine as the active ingredient” (priority 1991, published 2003).
Where “and” joins values, the source holds several entries; their conditions need not be identical. Equal entries are not always repeated. Where two headings read alike, the source gives them in different places.

Columns and labels:
[1] = system: cold sore (herpes labialis) lesions
[2] = system: aphthous stomatitis lesions (canker sores); settings: for Mean percentage decay rates of lesions for each patient: standardized over 24 hour period
Method: Treatment consisted of topical application five times per day for a period of five days., with daily evaluation by the patient and clinician. Lesion decay rates (decrease in lesion size over time) of Groups C and E were grouped together and compared to Group B, the placebo Group.
Assignment of subjects within groups to the three concentrations was unknown to the investigator.
The decay rate was calculated by first computing the percentage decrease in size of the lesion over time and then standardizing the decay rate over an exact 24 hour period.

[3] = system: oral mucositis (stomatitis) secondary to chemotherapy; settings: for Mean % Reduction In Symptom (discomfort with food/drink) / Mean Percent Reduction From Original Per Day / Mean % Reduction In Symptom: group mean
From the text: Prospective subjects were considered for the study if their mucositis (stomatitis) was diagnosed by their oncologist as secondary to their chemotherapy and if their oncologist recommended them as candidates for the study.
Patients were randomly assigned to one of three active ingredient levels being evaluated.
Following diagnosis and recommendation of oral mucositis patients by their oncologists, qualified participants were instructed to topically, intraorally apply one teaspoonful of their respective, randomly assigned gel by swishing and holding the gel in their mouth for 2 minutes and then expectorating the gel.
Evaluation of the extent of the oral mucous membrane involvement was based on each patient's estimate of this involvement (as a percentage) of the entire oral mucous membranes and each patient was contacted daily for this estimate as well as his or her estimate of the symptomatic relief of 5 common oral symptoms associated with mucositis (stomatitis) secondary to chemotherapy. In an attempt to quantify responses, patients were asked to rate each symptom each day an a scale of 0 to 5 with 0 representing no evidence of the symptom and 5 representing the worst or most vi prominent evidence of the symptom ever for the patient.
Patient compliance with the study regimen and the use of other medications or treatments was also evaluated.

## NCCc1c[nH]cn1 [IEP, 1H-imidazole-4-ethanamine,phosphate]
[1]; 0.00083% gel, 4 patients
  Mean percentage decay rate of lesions, Conc. Mean: 23.1%
[1]; 0.00083% gel, 48 Hours
  Average % reduction in lesions from original size: 14.0%
[1]; 0.00083% gel, 72 Hours
  Average % reduction in lesions from original size: 27.6%
[1]; 0.00083% gel, 96 Hours
  Average % reduction in lesions from original size: 44.3%
[1]; 0.00083% gel, Day 1
  Burning, average percent reduction of original symptom: 20.9%
  Itching, average percent reduction of original symptom: 41.7%
  Pain, average percent reduction of original symptom: 34.2%
  Spreading, average percent reduction of original symptom: 0%
  Swelling, average percent reduction of original symptom: 10.4%
[1]; 0.00083% gel, Day 2
  Burning, average percent reduction of original symptom: 66.7%
  Itching, average percent reduction of original symptom: 47.8%
  Pain, average percent reduction of original symptom: 51.7%
  Spreading, average percent reduction of original symptom: 0%
  Swelling, average percent reduction of original symptom: 37.5%
[1]; 0.00083% gel, Day 3
  Burning, average percent reduction of original symptom: 58.3%
  Itching, average percent reduction of original symptom: 16.7%
  Pain, average percent reduction of original symptom: 51.7%
  Spreading, average percent reduction of original symptom: 11.1%
[1]; 0.00083% gel, Day 4
  Burning, average percent reduction of original symptom: 75.0%
  Itching, average percent reduction of original symptom: 11.1%
  Pain, average percent reduction of original symptom: 65.0%
  Spreading, average percent reduction of original symptom: 22.2%
  Swelling, average percent reduction of original symptom: 75.0%
[1]; 0.00083% gel, Day 5
  Burning, average percent reduction of original symptom: 77.8%
  Itching, average percent reduction of original symptom: 41.7%
  Pain, average percent reduction of original symptom: 64.4%
  Spreading, average percent reduction of original symptom: 50.0%
  Swelling, average percent reduction of original symptom: 55.6%
[1]; 0.00083% gel, Day 6
  Burning, average percent reduction of original symptom: 66.7%
  Itching, average percent reduction of original symptom: 75.0%
  Pain, average percent reduction of original symptom: 66.7%
  Spreading, average percent reduction of original symptom: 66.7%
  Swelling, average percent reduction of original symptom: 0%
[1]; 0.0033% gel, 5 patients
  Mean percentage decay rate of lesions, Conc. Mean: 24.1%
[1]; 0.0033% gel, 24 Hours
  Average % reduction in lesions from original size: 11.8%
[1]; 0.0033% gel, 48 Hours
  Average % reduction in lesions from original size: 44.6%
[1]; 0.0033% gel, 72 Hours
  Average % reduction in lesions from original size: 57.8%
[1]; 0.0033% gel, 96 Hours
  Average % reduction in lesions from original size: 61.6%
[1]; 0.0033% gel, Day 1
  Burning, average percent reduction of original symptom: 21.7%
  Itching, average percent reduction of original symptom: 23.4%
  Spreading, average percent reduction of original symptom: 50.0%
[1]; 0.0033% gel, Day 2
  Burning, average percent reduction of original symptom: 37.5%
  Itching, average percent reduction of original symptom: 55.0%
  Spreading, average percent reduction of original symptom: 50.0%
  Swelling, average percent reduction of original symptom: 45.4%
[1]; 0.0033% gel, Day 3
  Burning, average percent reduction of original symptom: 62.5%
  Itching, average percent reduction of original symptom: 58.5%
  Pain, average percent reduction of original symptom: 33.3%
  Spreading, average percent reduction of original symptom: 16.7%
  Swelling, average percent reduction of original symptom: 55.8%
[1]; 0.0033% gel, Day 4
  Burning, average percent reduction of original symptom: 68.8%
  Itching, average percent reduction of original symptom: 75.0%
  Pain, average percent reduction of original symptom: 66.8%
  Spreading, average percent reduction of original symptom: 100%
  Swelling, average percent reduction of original symptom: 55.9%
[1]; 0.0033% gel, Day 5
  Burning, average percent reduction of original symptom: 100%
  Itching, average percent reduction of original symptom: 82.5%
  Pain, average percent reduction of original symptom: 66.7%
  Spreading, average percent reduction of original symptom: 100%
  Swelling, average percent reduction of original symptom: 65.0%
[1]; 0.0033% gel, Day 6
  Burning, average percent reduction of original symptom: 87.5%
  Itching, average percent reduction of original symptom: 100%
  Pain, average percent reduction of original symptom: 83.4%
  Swelling, average percent reduction of original symptom: 66.7%
[1]; 0.0067% gel, 4 patients
  Mean percentage decay rate of lesions, Conc. Mean: 54.4%
[1]; 0.0067% gel, 24 Hours
  Average % reduction in lesions from original size: 37.5%
[1]; 0.0067% gel, 48 Hours
  Average % reduction in lesions from original size: 67.0%
[1]; 0.0067% gel, 72 Hours
  Average % reduction in lesions from original size: 86.2%
[1]; 0.0067% gel, 96 Hours
  Average % reduction in lesions from original size: 98.9%
[1]; 0.0067% gel, Day 1
  Burning, average percent reduction of original symptom: 50.0%
  Itching, average percent reduction of original symptom: 50.0%
  Pain, average percent reduction of original symptom: 66.7%
  Spreading, average percent reduction of original symptom: 66.7%
  Swelling, average percent reduction of original symptom: 50.0%
[1]; 0.0067% gel, Day 2
  Burning, average percent reduction of original symptom: 100%
  Itching, average percent reduction of original symptom: 100%
  Pain, average percent reduction of original symptom: 83.4%
  Spreading, average percent reduction of original symptom: 100%
  Swelling, average percent reduction of original symptom: 83.3%
[1]; 0.0067% gel, Day 3
  Burning, average percent reduction of original symptom: 100%
  Itching, average percent reduction of original symptom: 100%
  Pain, average percent reduction of original symptom: 55.6%
  Spreading, average percent reduction of original symptom: 100%
  Swelling, average percent reduction of original symptom: 54.2%
[1]; 0.0067% gel, Day 4
  Burning, average percent reduction of original symptom: 100%
  Itching, average percent reduction of original symptom: 75.0%
  Pain, average percent reduction of original symptom: 55.6%
  Spreading, average percent reduction of original symptom: 100%
  Swelling, average percent reduction of original symptom: 61.7%
[1]; 0.0067% gel, Day 5
  Burning, average percent reduction of original symptom: 100%
  Itching, average percent reduction of original symptom: 100%
  Pain, average percent reduction of original symptom: 100%
  Spreading, average percent reduction of original symptom: 100%
  Swelling, average percent reduction of original symptom: 66.7%
[1]; 0.0067% gel, Day 6
  Spreading, average percent reduction of original symptom: 100%
  Swelling, average percent reduction of original symptom: 100%
[1]; 0.0067% treatment vs placebo, p<0.05
  Reducing lesion size over time vs placebo (analysis of variance): significantly more effective
[1]; in vivo
  Untoward reactions: no untoward reactions
[2]; 0.0067% gel, 3 patients
  Mean percentage decay rate of lesions, Conc. Mean: 74.1%
[2]; 0.0067% gel
  Mean percentage decay rates of lesions for each patient: 100.0% and 53.8% and 68.4%
[2]; 0.0275% gel, 2 patients
  Mean percentage decay rate of lesions, Conc. Mean: 83.5%
[2]; 0.0275% gel
  Mean percentage decay rates of lesions for each patient: 104.0% and 62.9%
[2]; Groups C and E (0.0067%, 0.0275%) combined, p<.O1
  Reducing lesion size over time vs placebo (analysis of variance): significantly more effective
[2]; in vivo
  Untoward events or significant complications: No untoward events or significant complications
[3]; 0.0045% IEP gel
  Mean % Reduction In Symptom (discomfort with food/drink): 55.6%
[3]; 0.0045% IEP gel, per patient
  Mean Percent Reduction From Original Involvement Per Day: 33.3% and 18.0% and 25.0%
[3]; 0.0045% gel, Day 4, per patient
  Percent of Mouth that Lesions Occupy: 0% and 25% and 1%
[3]; 0.0045% gel, Day 5, per patient
  Percent of Mouth that Lesions Occupy: 0%
[3]; 0.0045% gel, Day 6, per patient
  Percent of Mouth that Lesions Occupy: 0% (2×) and 5%
[3]; 0.0045% gel, Day 7, per patient
  Percent of Mouth that Lesions Occupy: 0%
[3]; 0.0045% gel
  Mean Percent Reduction From Original Per Day: 25.4%
[3]; 0.0275% IEP gel
  Mean % Reduction In Symptom (discomfort with food/drink): 52.8%
[3]; 0.0275% IEP gel, per patient
  Mean Percent Reduction From Original Involvement Per Day: 50.0% and 33.3% (2×)
[3]; 0.0275% gel, Day 1 of treatment, per patient
  Percent of Mouth that Lesions Occupy: 50% and 25% (2×)
[3]; 0.0275% gel, Day 2, per patient
  Percent of Mouth that Lesions Occupy: 30% and 25% (2×)
[3]; 0.0275% gel, Day 3, per patient
  Percent of Mouth that Lesions Occupy: 25% (2×) and 0%
[3]; 0.0275% gel, Day 4, per patient
  Percent of Mouth that Lesions Occupy: 0%
[3]; 0.0275% gel, Day 5, per patient
  Percent of Mouth that Lesions Occupy: 0%
[3]; 0.0275% gel, Day 6, per patient
  Percent of Mouth that Lesions Occupy: 0%
[3]; 0.0275% gel, Day 7, per patient
  Percent of Mouth that Lesions Occupy: 0%
[3]; 0.0275% gel
  Mean Percent Reduction From Original Per Day: 38.9%
[3]; 0.0275% vs placebo, p<.O1
  Difference in reduction of oral mucous membrane involvement vs placebo: highly statistically significant
[3]; Table 9.7, 0.0045% gel
  Mean % Reduction In Symptom: 58.3%
[3]; Table 9.7, 0.0275% gel
  Mean % Reduction In Symptom: 83.3%
[3]; Table 9.7, 0.0275% gel, per patient
  Mean Percent Reduction Per Day in Discomfort with Food/Drink: 100.0% (2×) and 50.0%
[3]; in vivo
  Untoward effects: no untoward effects
